How the values were obtained:
rats [1] = test: Behavioural dysfunction scoring during recovery from infusion; type: in vivo; settings: rat, during wake-up; sum score 0 (no effect) to 4 (severe dysfunction); mean (SEM)
Method: (§1) The compounds were evaluated for their ability to anaesthetise rats when administered by continuous intravenous infusion, as reported previously. Compounds were administered to initially deliver 20 mg/kg/min (weight-adjusted flow) to achieve a pedal withdrawal reflex score (PWR = 1), then titrated to maintain loss of righting reflex (LORR) for 10 min. Three rats were used in each study, with each group of rats also acting as their own ketamine control. Data were collected on the total dose of drug (mg/kg), to achieve LORR and a PWR = 1, and on the time (in seconds, from cessation of the infusion) to recovery of righting reflex (RORR) (recovery from the hypnotic anaesthesia effect). Given the complexity of the experimental protocol, the total dose for LORR (Table 1) is very consistent, with ranges of only 1.5-fold within each group. The consistency of the post-sedation recovery times are expectedly lower, with ranges of about 2.5-fold. During recovery the rats were monitored for multiple signs of behavioural dysfunction (see biology section for details) and the sum of these scores (from 0 to 4, with 0 being no effect and 4 being severe dysfunction) is given in Table 2. IC50 values for inhibition of the NMDA receptor were conducted by Eurofins PanLabs, Taiwan.
Behavioural dysfunction scoring: This was undertaken according to the following table. Observations were made over a one minute interval every five minutes from cessation of infusion until return of normal behaviours (total score = 0). A score of 1 was accorded for any positive behavioural aberration for each of four categories (maximal score 4) during wake-up.
Duration of any behavioural aberration was recorded from RORR as follows: score 0 = nil; score1 = 0–120 s; score 2 = 121–300 s; score 3 = 301–600 s; score 4 = 600+ s.

rats [2] = test: Pedal withdrawal reflex (PWR) scoring during intravenous infusion (analgaesic potency); type: in vivo; settings: rat, i.v. infusion, dose to PWR = 1, mean (SEM), read-out: Analgaesia potency: minimal dose for loss of pedal withdrawal reflex (SEM)
Method: as §1
(§2) All animal experiments were conducted at the Ruakura Research Centre, Hamilton, New Zealand, using experimental protocols reviewed and approved by the Ruakura Animal Ethics Committee (ethics ref 12604/13786). Adult female Sprague-Dawley rats of approximately 250–350 g were evaluated in both anaesthetic and analgaesic study protocols. All study agents were delivered by tail vein cannula connected via minibore extension tubing to mechanised infusion pump.
(§3) Following acquisition of baseline physiologic parameters (heart rate, respiratory rate, PWR, and righting reflex (RR)) ketamine or an experimental compound at 10mg/mL were commenced at a rate (weight-adjusted) to deliver 20 mg/kg/min. Dose to loss of righting reflex (LORR see below), and subsequent pedal withdrawal score of 1 (PWR see below) were recorded. Following attaining a PWR of 1, infusion rate was reduced to 6.7 mg/kg/min, then titrated in an up-and-down fashion as required to maintain both dorsal recumbency, and a PWR = 1, to 10 min before cessation. Each study used three rats, with each group of rats also acting as their own ketamine control. Prior odds/evens randomisation determined the order of study drug administration was determined by with a recovery interval of at least three hours afforded between experiments. Records of PWR and RR were made at one-minute intervals throughout, from cessation of infusion to return of righting reflex (RORR), and from cessation of infusion to the animals displaying independent locomotion (walk).
Pedal Withdrawal Reflex (PWR) scoring: Nociceptive testing in animals was conducted via 1 s application of constant pressure (firm digital pressure) over the forepaw of the animal. Pedal withdrawal reflex testing is primarily used to assess analgaesic effect, and responses are graded accordingly: 0, absent; 1, flicker; 2, moderate withdrawal; 3, fast withdrawal; 4, Fast withdrawal with cry/preceding apnoea (modified from).

rats [3] = test: Anaesthetic assessment by continuous intravenous infusion in rats (loss and return of righting reflex); type: in vivo; settings: rat; for minimal effective dose: iv, i.v. infusion starting at 20 mg/kg/min, measure of sedative potency, mean (SEM), read-out: Sedation LORR: minimal dose for loss of righting reflex (SEM)
Method: as §1, §2, §3
Loss of Righting Reflex (LORR): This is primarily used to assess anaesthetic hypnotic effect. Righting reflex is judged absent when the rat fails to right from a position of dorsal recumbency to a position of sternal recumbency on three attempts performed in rapid succession. Dose to LORR is termed effective potency.

[4] = biological target: N-methyl-D-aspartate receptor; test: Inhibition of the NMDA receptor (Eurofins Panlabs Taiwan); type: binding; settings: conducted by Eurofins Panlabs Taiwan
Method: as §1

rats [5] = test: Tail flick analgaesic assessment (composite tail flick latency, cTFL); type: in vivo; settings: rat, 20 mg/kg i.v. infused over 10 min; AUC of %MPE-time curve 0-60 min; measure of analgaesic magnitude/duration
Method: Analgaesic assessment protocol: Animal preparation was in accord with the anaesthetic assessment protocol above. Three rats were used in each study. Following venous cannulation, animals underwent infusion of ketamine or experimental compound at 20 mg/kg over a ten minute interval. A tail flick analgaesia meter (Colombus Instruments, Colombus, Ohio) was then used to determine thermal pain sensitivity. Radiant heat was applied using a shutter-controlled lamp as a heat source focused on a spot located 6–8 cm from the tip of the tail. The intensity of the beam was set at a level producing basal latency times between 2 and 4 s. To prevent thermal tissue injury the cut off time as set at 10 s. A digital response time indicator with a resolution of 0.1s measured the time from initiation of stimulus until tail withdrawal (the flick; TFL).
The TFL response following infusion of control and study drugs was calculated as a percentage of the maximum possible effect (MPE) such that:%MPE = [TFL (post-drug) – TFL (pre-drug)/10 s – TFL (pre-drug)] × 100%(1)
TFL latency was recorded at 5 min intervals from cessation of study drug infusion (time zero) to 60 min. Individual %MPE-time curves were constructed for each animal, and the area under the curve (AUC) adopted as a composite measure of induced analgaesia (cTFL).

| Structure (SMILES) | Behavioural dysfunction Score (SEM): severity on recovery (rats [1]) | minimal effective dose (rats [2]) [mg/kg] | minimal effective dose (rats [3]) [mg/kg] | IC50 [4] [µM] | Analgaesia cTFL (composite tail flick latency) (rats [5]) [s] | Seizure-inducing effect during infusion (rats [3]; i.v. infusion in anaesthetic assessment protocol) |
| --- | --- | --- | --- | --- | --- | --- |
| CC(C)OC(=O)CCNC1(c2ccccc2)CCCCC1=O (stereo not drawn) [3a] | 0.5 (0.7) | > 200 | > 200 | > 1000 | 0 | – |
| COC(=O)CCCCNC1(c2ccccc2)CCCCC1=O (stereo not drawn) [3b] | 1 (0) | 45 | 40 | 9.9 | 0 | – |
| CC(C)OC(=O)CCNC1(c2ccccc2F)CCCCC1=O (stereo not drawn) [4a] | 1 (0) | 62 | 59 | 249 | 1297 | – |
| COC(=O)CCCCNC1(c2ccccc2F)CCCCC1=O (stereo not drawn) [4b] | 3 (1.4) | 40 | 35 | 3.1 | 11 | – |
| Cc1ccccc1C1(NCCC(=O)OC(C)C)CCCCC1=O (stereo not drawn) [6a] | 0 (0) | > 200 | > 200 | 428 | 393 | – |
| COC(=O)CCCCNC1(c2ccccc2C)CCCCC1=O (stereo not drawn) [6b] | 1 (0) | 43 | 37 | 3.4 | 91 | – |
| COc1ccccc1C1(NCCC(=O)OC(C)C)CCCCC1=O (stereo not drawn) [7a] | 0 (0) | > 200 | > 200 | 172 | 313 | – |
| COC(=O)CCCCNC1(c2ccccc2OC)CCCCC1=O (stereo not drawn) [7b] | 3 (1) | 49 | 34 | > 1000 | 2332 | – |
| CC(C)OC(=O)CCNC1(c2ccccc2C(F)(F)F)CCCCC1=O (stereo not drawn) [8a] | 2 (1) | 64 | 64 | 290 | 652 | – |
| COC(=O)CCCCNC1(c2ccccc2C(F)(F)F)CCCCC1=O (stereo not drawn) [8b] | 1 (0) | 156 | 154 | 128 | 1864 | – |
| CC(C)OC(=O)CCNC1(c2ccccc2OC(F)(F)F)CCCCC1=O (stereo not drawn) [9a] | 1 (0) | 62 | 62 | 184 | 80 | – |
| COC(=O)CCCCNC1(c2ccccc2OC(F)(F)F)CCCCC1=O (stereo not drawn) [9b] | 3 (1) | > 200 | > 200 | 121 | 119 | – |
| CC(C)OC(=O)CCNC1(c2cccc(Cl)c2)CCCCC1=O (stereo not drawn) [10a] | 1 (0) | 58 | 67 | 164 | 332 | – |
| COC(=O)CCCCNC1(c2cccc(Cl)c2)CCCCC1=O (stereo not drawn) [10b] | 3 (1) | 61 | 51 | 13 | 54 | – |
| Cc1cccc(C2(NCCC(=O)OC(C)C)CCCCC2=O)c1 (stereo not drawn) [11a] | 2 (1) | 50 | 38 | 466 | 63 | – |
| COC(=O)CCCCNC1(c2cccc(C)c2)CCCCC1=O (stereo not drawn) [11b] | 2 (1) | 43 | 39 | 5.2 | 104 | – |
| COc1cccc(C2(NCCC(=O)OC(C)C)CCCCC2=O)c1 (stereo not drawn) [12a] | 2 (0) | 83 | 79 | 201 | 284 | – |
| COC(=O)CCCCNC1(c2cccc(OC)c2)CCCCC1=O (stereo not drawn) [12b] | 3 (1.4) | 58 | 50 | 5.6 | 210 | – |
| CC(C)OC(=O)CCNC1(c2cccc(C(F)(F)F)c2)CCCCC1=O (stereo not drawn) [13a] | 0 (0) | > 200 | > 200 | 229 | 208 | – |
| COC(=O)CCCCNC1(c2cccc(C(F)(F)F)c2)CCCCC1=O (stereo not drawn) [13b] | 0 (0) | > 200 | > 200 | 172 | 8 | – |
| CC(C)OC(=O)CCNC1(c2cccc(OC(F)(F)F)c2)CCCCC1=O (stereo not drawn) [14a] | 0 (0) | > 200 | > 200 | 211 | 274 | – |
| COC(=O)CCCCNC1(c2cccc(OC(F)(F)F)c2)CCCCC1=O (stereo not drawn) [14b] | 0 (0) | > 200 | > 200 | 57 | 444 | – |
| CC(C)OC(=O)CCNC1(c2ccc(Cl)cc2)CCCCC1=O (stereo not drawn) [15a] | 2 (1) | > 200 | 99 | 129 | 491 | – |
| COC(=O)CCCCNC1(c2ccc(OC)cc2)CCCCC1=O (stereo not drawn) [17b] | 3 (0) | – | – | 94.1 | 551 | seizure-inducing effect |
| COC(=O)CCCCNC1(c2cccs2)CCCCC1=O (stereo not drawn) [20b] | – | 74 | 52 | 8.9 | 196 | – |
